Measured values as given in ChEMBL document CHEMBL5528039, “Discovery of a Macrocyclic Influenza Cap-Dependent Endonuclease Inhibitor” (J Med Chem, 2024).

How the values were obtained:
Influenza A virus [1] = assay: Antiviral activity against Influenza A virus A/PR/8/34 PA-I38T infected in MDCK cells assessed as reduction in virus-induced cytopathic effect incubated for 5 days by CCK8 based microplate spectrophotometric analysis; format: functional, organism-based; conditions: for EC50: mdck; for EC90: time 5 day
Influenza A virus [2] = assay: Selectivity ratio of EC50 for antiviral activity against Influenza A virus A/PR/8/34 PA-I38T infected in MDCK cells to EC50 for antiviral activity against Influenza A virus A/PR/8/34 (H1N1) infected in MDCK cells; format: functional
Influenza A virus [3] = assay: Antiviral activity against baloxavir-resistant Influenza A virus A/PR/8/34 infected in MDCK cells assessed as reduction in virus-induced cytopathic effect incubated for 5 days by CCK8 based microplate spectrophotometric analysis; format: functional, organism-based; conditions: for EC50: mdck; for EC90: time 5 day
Influenza A virus [4] = assay: Selectivity ratio of EC50 for antiviral activity against baloxavir-resistant Influenza A virus A/PR/8/34 infected in MDCK cells to EC50 for antiviral activity against Influenza A virus A/PR/8/34 (H1N1) infected in MDCK cells; format: functional

Row | SMILES | EC50 (Influenza A virus [1]) [nM] | EC90 (Influenza A virus [1]) [nM] | Ratio EC50 (Influenza A virus [2]) | EC50 (Influenza A virus [3]) [nM] | EC90 (Influenza A virus [3]) [nM] | Ratio EC50 (Influenza A virus [4])
1 | CN1C(=O)c2c(O)c(=O)ccn2N2[C@H](c3ccccc3)c3cc(F)c(F)cc3OCC[C@@H]12 | 66 | 113 | 9.2 | 66 | 113 | 9.2
2 | CN1C(=O)c2c(O)c(=O)ccn2N2[C@H](c3ccccc3F)c3cc(F)c(F)cc3OCC[C@@H]12 | 79 | 123 | 7.2 | – | – | –
3 | CN1C(=O)c2c(O)c(=O)ccn2N2[C@H](c3ccccc3)c3ccccc3OCC[C@@H]12 | 214 | 336 | 15 | – | – | –
4 | O=C1c2c(O)c(=O)ccn2N([C@@H]2c3ccccc3SCc3c2ccc(F)c3F)[C@@H]2COCCN12 [BALOXAVIR] | 142 | 232 | 68 | 142 | 232 | 68
5 | CN1C(=O)c2c(O)c(=O)ccn2N2[C@H](c3ccc(F)c(F)c3)c3cc(F)c(F)cc3OCC[C@@H]12 | 211 | 393 | 8.4 | – | – | –
6 | CN1C(=O)c2c(O)c(=O)ccn2N2[C@H](c3ccccc3)c3ccc(F)c(F)c3OCC[C@@H]12 (racemic) | 512 | 795 | 10 | – | – | –
7 | CN1C(=O)c2c(O)c(=O)ccn2N2[C@H](c3ccccc3Br)c3cc(F)c(F)cc3OCC[C@@H]12 (racemic) | 166 | 344 | 15 | – | – | –
8 | CN1C(=O)c2c(O)c(=O)ccn2N2[C@H](c3ccc(F)cc3)c3cc(F)c(F)cc3OCC[C@@H]12 | 193 | 370 | 14 | – | – | –
9 | CC(C)N1C(=O)c2c(O)c(=O)ccn2N2[C@H](c3ccccc3)c3ccccc3OCC[C@@H]12 (racemic) | 435 | 675 | 8.2 | – | – | –
